Reference: patent US20230227453A1 (priority 2020, published 2023)

Assays:
[1] = molecular target: T1, 5-HT2A (Homo sapiens, UniProt P28223); experiment: Serotonin 5-HT2A in vitro radioligand binding competition assay; parameters: purchased Epics Therapeutics S.A. (Belgium) FAST-0505B; host or cells: membrane extracts; settings: radiotracer [3H]-DOI, membrane extracts
Protocol: Serotonin 5-HT2A In Vitro Radioligand Binding Competition Assay. The 5-HT2A radioligand binding competition assay was performed at Epics Therapeutics S.A. (Belgium, FAST-0505B) using conventional methods. Briefly, competition binding is performed in duplicate in the wells of a 96 well plate (Master Block, Greiner, 786201) containing binding buffer (optimized for each receptor), membrane extracts (amount of protein/well optimized for each receptor), radiotracer [^3H]-DOI (final concentration optimized for each receptor) and test compound. Nonspecific binding is determined by co-incubation with 200-fold excess of cold competitor. The samples are incubated in a final volume of 0.1 ml at a temperature and for a duration optimized for each receptor and then filtered over filter plates. Filters are washed six times with 0.5 ml of ice-cold washing buffer (optimized for each receptor) and 50 μl of Microscint 20 (Packard) are added in each well. The plates are incubated 15 min on an orbital shaker and then counted with a TopCount™ for 1 min/well.

[2] = molecular target: T1, 5-HT2A; experiment: Serotonin 5-HT2A in vitro cellular IPOne agonism assay; assay type: cell-based; parameters: host or cells: CHO-K1; settings: CHO-K1 cells, IPOne HTRF, 60 min
Protocol: Serotonin 5-HT2A In Vitro Cellular IPOne Agonism Assay. The 5-HT2A IPOne HTRF assay was performed at Epics Therapeutics S.A. (Belgium, FAST-0505I) using conventional methods. Briefly, CHO-K1 cells expressing human recombinant 5-HT2A receptor grown to mid-log phase in culture media without antibiotics were detached with PBS-EDTA, centrifuged, and resuspended in medium without antibiotics buffer. 20,000 cells are distributed in a 96 well plate and incubated overnight at 37° C. with 5% CO2.
For agonist testing, the medium is removed and 20 μl of assay buffer plus 20 μl of test compound or reference agonist are added in each well. The plate is incubated for 60 min. at 37° C. with 5% CO2.
After addition of the lysis buffer containing IP1-d2 and anti-IP1 cryptate detection reagents, plates are incubated 1-hour at room temperature, and fluorescence ratios are measured according to the manufacturer specification, with the HTRF kit.

[3] = tested on: rat cortical neurons; experiment: Neurite Outgrowth Assay (Procedure B); assay type: cell-based; parameters: key: A: Statistically significant mean increase as a percent of DMSO control at 10 μM or less; B: No statistically significant mean increase as a percent of DMSO control at 10 μM or less; settings: primary rat neuronal cultures, 72h, vs DMSO control, 10 μM or less
Protocol: Neurite Outgrowth Assay (Procedure B). Pregnant Wistar rats (Janvier; France) were used for the study. They were delivered 6 days before their use. Upon arrival at Neurofit animal facility, they were housed one per cage and maintained in a room with controlled temperature (21-22° C.) and a reversed light-dark cycle (12h/12h; lights on: 17:30-05:30; lights off: 05:30-17:30) with food and water available ad libitum.
Female Wistar rats of 17 days gestation were killed by cervical dislocation and the fetuses were removed from the uterus. Their brains were placed in ice-cold medium of Leibovitz (L15, Gibco, Fisher bioblock, France). Cortices were dissected and meninges were carefully removed. The cortical neurons were dissociated by trypsinization for 30 min at 37° C. (trypsin-EDTA, Gibco) in presence of 0.1 mg/ml DNAse I (Roche, France). The reaction was stopped by addition of Dulbecco's Modified Eagle Medium (DMEM; Gibco) with 10% of fetal bovine serum (FBS; Gibco). The suspension was triturated with a 10-ml pipette and using a needle syringe 21G and centrifuged at 350×g for 10 min at room temperature. The pellet of dissociated cells was resuspended in a medium consisting of Neurobasal (Gibco) supplemented with 2% B27 supplement (Gibco), 0.5 mM L-Glutamine (Gibco), an antibiotic-antimicotic mixture. Viable cells were counted in a Neubauer cytometer using the trypan blue exclusion test (Sigma). Cells were seeded at a density of 10000 cells per well in 96-well plate (Costar) precoated with poly-L-lysine. Test compound at different concentrations were added to the cultures. Donepezil (positive control) was tested at 250 nM.
After 72h (3 days) of plating, cultures were fixed with paraformaldehyde in PBS (4%, Sigma) for 30 min at 4° C. Then, cells were successively permeabilized with 0.1% Triton X100 for 30 min, saturated with PBS containing 3% of BSA and were incubated 1 h with anti-beta III tubulin antibody (Sigma) at 1/10 000 in PBS containing 0.5% of BSA. Cells were washed three times with PBS containing 0.5% of BSA, and they were incubated 1 h with goat anti-mouse antibody coupled with AF488 (Invitrogen A11001) diluted at 1/1000 in PBS containing 0.5% of BSA. Finally, nuclei were staining with DAPI 1 mg/ml at 1/1000 in PBS containing 0.5% of BSA. After rinsing with PBS, the plate was filmed and neurite networks were examined and analyzed using High-Content Screening (Celllnsight, Thermo Scientific). The average number of neurites per neuron and the average total length of neurites per neuron were the main parameters analyzed. Analysis of data was performed using analysis of variance (ANOVA). The Fisher's Protected Least Significant Difference test was used for multiple comparisons. A p value≤0.05 was considered significant. The software used is StatView 5.0 from SAS Institut.

T1 sequence (P28223 whole entry): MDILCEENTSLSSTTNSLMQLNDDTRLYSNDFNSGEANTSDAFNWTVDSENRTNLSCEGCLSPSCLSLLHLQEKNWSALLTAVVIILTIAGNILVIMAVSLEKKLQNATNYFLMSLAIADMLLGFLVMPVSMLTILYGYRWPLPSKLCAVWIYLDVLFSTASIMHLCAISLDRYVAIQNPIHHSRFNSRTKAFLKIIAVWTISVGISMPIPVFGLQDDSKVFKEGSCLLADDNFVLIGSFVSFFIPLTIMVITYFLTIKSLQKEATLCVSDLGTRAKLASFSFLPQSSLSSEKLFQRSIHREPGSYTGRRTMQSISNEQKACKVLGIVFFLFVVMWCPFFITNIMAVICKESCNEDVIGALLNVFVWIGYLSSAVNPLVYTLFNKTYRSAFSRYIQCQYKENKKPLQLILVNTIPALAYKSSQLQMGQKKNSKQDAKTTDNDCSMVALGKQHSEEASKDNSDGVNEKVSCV

Row | SMILES | IC50 [1] [µM] | EC50 [2] [µM] | Increase in Neurite Length [3] | Increase in Neurite Number [3]
1 | COc1ccc2c3c([nH]c2n1)CCNCC3 [Example 2, 2-methoxy-5,6,7,8,9,10-hexahydropyrido[3′,2′:4,5]pyrrolo[2,3-d]azepine] | 0.101 to 1 | 0.01 to 0.1 | A | A
2 | COc1ccc2c3c(n(C)c2n1)CCN(C)CC3 [Example 3, 2-methoxy-7,10-dimethyl-5,6,7,8,9,10-hexahydropyrido[3′,2′:4,5]pyrrolo[2,3-d]azepine] | 1 to 10 | 0.101 to 1 | B | B
3 | COc1ccc2c3c([nH]c2n1)CCN(C1COC1)CC3 [Example 4, 2-methoxy-7-(oxetan-3-yl)-5,6,7,8,9,10 hexahydropyrido[3′,2′:4,5]pyrrolo[2,3-d]azepine] | > 10 | > 10 | B | B
4 | COc1ccc2c3c(n(C)c2n1)CCNCC3 [Example 5, 2-methoxy-10-methyl-5,6,7,8,9,10-hexahydropyrido[3′,2′:4,5]pyrrolo[2,3-d]azepine] | 0.101 to 1 | 0.01 to 0.1 | B | B
5 | COc1ccc2c3c(n(C)c2n1)CCN(C1COC1)CC3 [Example 6, 2-methoxy-10-methyl-7-(oxetan-3-yl)-5,6,7,8,9,10-hexahydropyrido[3′,2′:4,5]pyrrolo[2,3-d]azepine] | > 10 | 1 to 10 | – | –
6 | Cc1ccc2c3c([nH]c2n1)CCN(C)CC3 [Example 7, 2,7-dimethyl-5,6,7,8,9,10-hexahydropyrido[3′,2′:4,5]pyrrolo[2,3-d]azepine] | 1 to 10 | 1 to 10 | B | B
7 | Cc1ccc2c3c([nH]c2n1)CCNCC3 [Example 8, 2-methyl-5,6,7,8,9,10-hexahydropyrido[3′,2′:4,5]pyrrolo[2,3-d]azepine] | 1 to 10 | 0.101 to 1 | B | B
8 | Cc1ccc2c3c(n(C)c2n1)CCNCC3 [Example 10, 2,10-dimethyl-5,6,7,8,9,10-hexahydropyrido[3′,2′:4,5]pyrrolo[2,3-d]azepine] | 1 to 10 | 0.01 to 0.1 | – | –
9 | Clc1cnc2[nH]c3c(c2c1)CCNCC3 [Example 13, 3-chloro-5,6,7,8,9,10-hexahydropyrido[3′,2′:4,5]pyrrolo[2,3-d] azepine] | 0.101 to 1 | 0.01 to 0.1 | – | –
10 | COc1cc2c3c([nH]c2cn1)CCN(C)CC3 [Example 14, 3-methoxy-7-methyl-5,6,7,8,9,10-hexahydropyrido[4′,3′:4,5]pyrrolo[2,3-d]azepine] | > 10 | > 10 | – | –
11 | COc1ccc2[nH]c3c(c2n1)CCN(C)CC3 [Example 15, 2-methoxy-8-methyl-5,6,7,8,9,10-hexahydropyrido[2′,3′:4,5]pyrrolo[2,3-d]azepine] | 0.101 to 1 | 0.101 to 1 | – | –
12 | Brc1ccc2c3c([nH]c2n1)CCNCC3 [Example 16, 2-bromo-5,6,7,8,9,10-hexahydropyrido[3′,2′:4,5]pyrrolo[2,3-d]azepine] | 0.101 to 1 | 0.01 to 0.1 | – | –
13 | c1cnc2[nH]c3c(c2c1)CCNCC3 [Example 17, 5,6,7,8,9,10-hexahydropyrido[3′,2′:4,5] pyrrolo[2,3-d] azepine] | 0.101 to 1 | 0.101 to 1 | – | –
14 | Cn1c2c(c3cccnc31)CCNCC2 [Example 18, 10-methyl-5,6,7,8,9,10-hexahydropyrido[3′,2′:4,5]pyrrolo[2,3-d]azepine] | 0.101 to 1 | 0.101 to 1 | – | –
15 | CN1CCc2[nH]c3nc(Br)ccc3c2CC1 [Example 19, 2-bromo-7-methyl-5,6,7,8,9,10-hexahydropyrido[3′,2′:4,5]pyrrolo[2,3-d]azepine] | 1 to 10 | 0.101 to 1 | – | –
16 | CN1CCc2[nH]c3ncccc3c2CC1 [Example 20, 7-methyl-5,6,7,8,9,10-hexahydropyrido[3′,2′:4,5]pyrrolo[2,3-d]azepine] | 0.101 to 1 | 0.101 to 1 | – | –
17 | CN1CCc2c(n(C)c3ncccc23)CC1 [Example 21, 7,10-dimethyl-5,6,7,8,9,10-hexahydropyrido[3′,2′:4,5]pyrrolo[2,3-d]azepine] | 0.101 to 1 | 0.101 to 1 | – | –
18 | c1cnc2[nH]c3c(c2c1)CCN(C1COC1)CC3 [Example 22, 7-(oxetan-3-yl)-5,6,7,8,9,10-hexahydropyrido[3′,2′:4,5]pyrrolo[2,3-d]azepine] | > 10 | > 10 | – | –
19 | Cn1c2c(c3cccnc31)CCN(C1COC1)CC2 [Example 23, 10-methyl-7-(oxetan-3-yl)-5,6,7,8,9,10-hexahydropyrido[3′,2′:4,5]pyrrolo[2,3-d]azepine] | > 10 | 1 to 10 | – | –
20 | Brc1ccc2c3c([nH]c2n1)CCN(C1COC1)CC3 [Example 24, 2-bromo-7-(oxetan-3-yl)-5,6,7,8,9,10-hexahydropyrido[3′,2′:4,5]pyrrolo[2,3-d]azepine] | 1 to 10 | 1 to 10 | – | –
21 | Cn1c2c(c3ccc(Br)nc31)CCNCC2 [Example 25, 2-bromo-10-methyl-5,6,7,8,9,10-hexahydropyrido[3′,2′:4,5]pyrrolo[2,3-d]azepine] | 0.101 to 1 | 0.01 to 0.1 | – | –
22 | CN1CCc2[nH]c3ncc(Cl)cc3c2CC1 [Example 26, 3-chloro-7-methyl-5,6,7,8,9,10-hexahydropyrido[3′,2′:4,5]pyrrolo[2,3-d]azepine] | 0.101 to 1 | 0.101 to 1 | – | –
23 | Clc1cnc2[nH]c3c(c2c1)CCN(C1COC1)CC3 [Example 27, 3-chloro-7-(oxetan-3-yl)-5,6,7,8,9,10-hexahydropyrido[3′,2′:4,5]pyrrolo[2,3-d]azepine] | 1 to 10 | 1 to 10 | – | –
24 | Cn1c2c(c3cc(Cl)cnc31)CCNCC2 [Example 28, 3-chloro-10-methyl-5,6,7,8,9,10-hexahydropyrido[3′,2′:4,5]pyrrolo[2,3-d]azepine] | 0.101 to 1 | 0.101 to 1 | – | –
25 | Cn1c2c(c3cc(Cl)cnc31)CCN(C1COC1)CC2 [Example 29, 3-chloro-10-methyl-7-(oxetan-3-yl)-5,6,7,8,9,10-hexahydropyrido[3′,2′:4,5]pyrrolo[2,3-d]azepine] | > 10 | 1 to 10 | – | –
26 | CN1CCc2c(n(C)c3ncc(Cl)cc23)CC1 [Example 30, 3-chloro-7,10-dimethyl-5,6,7,8,9,10-hexahydropyrido[3′,2′:4,5]pyrrolo[2,3-d]azepine] | 0.101 to 1 | 0.101 to 1 | – | –
